Measured values taken from patent US20220016215A1, “GIP RECEPTOR AGONIST PEPTIDE COMPOUNDS AND USES THEREOF” (TAKEDA PHAARMACEUTICAL COMPANY LIMITED, priority 2018, published 2022).
Read-outs that look alike come from different tables or passages of the source. Blank lines part the entries; values can stand above or below the molecule they belong to.

Assays:
human GLP-1R = human GLP-1R (Homo sapiens, UniProt P43220); test: Agonist activity on human GLP-1R, CRE-luciferase reporter assay (increase in intracellular cAMP as indicator); format: cell-based; design: expressed in transfected cells; details: hGLP-1R/CRE-luc/CHO-K1 cells, 4 h incubation
Text: (§1) The human GIPR gene having an identical sequence to Genebank Accession No. U39231 is cloned into a pMSRα-neo vector to prepare hGIPR/pMSRα-neo.
(3) Construction of Reporter Plasmid
Four copies of a cAMP responsive sequence and a Zeocin resistance gene are transferred to pGL3(R2.2)-Basic Vector (Promega) to construct a Cre-luc(Zeo) reporter plasmid.
(5) Construction of Expression Plasmid of Human GLP-1R Gene
The human GLP-1R gene having an identical sequence to Genebank Accession No. NM_002062 is cloned into a pIRESneo3 vector to prepare hGLP-1/pIRESneo3.
(6) Transfer of Human GLP-1R Gene and Reporter Plasmid to CHO-K1 Cell and Obtaining of Expressing Cell
The Cre-luc (Zeo) obtained in (3) and the plasmid hGLP-1/pIRESneo3 obtained in (5) transferred to the CHO-K1 cell to obtain a transformant. Subsequently, the cell line inducing the luciferase expression, hGLP-1R/CRE-luc/CHO-K1 cell, is selected from the obtained transformant by adding GLP-1.
The GLP-1R agonist activity is assayed in the same manner as above using the hGLP-1R/CRE-luc/CHO-K1 cell.

[1] = test system: morphine (0.6 mg/kg, s.c.)-induced emesis in ferrets; test: Morphine-induced acute emetic model in male ferrets; format: in vivo, ferret
Outline: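 Male ferrets (4 per group) received peptide at 10 or 30 nmol/kg s.c. in 0.09% Tween 80/10% DMSO/saline, or vehicle. Morphine 0.6 mg/kg s.c. was given 4 or 120 h later, and abdominal contractions, vomiting, licking and fidgeting were recorded for up to 360 min.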

human GIPR = biological target: T1, human GIPR (Homo sapiens, UniProt P48546); test: Agonist activity on human GIPR, CRE-luciferase reporter assay (increase in intracellular cAMP as indicator); format: cell-based; details: for Selectivity Ratio (B/A): GLP1R EC50 / GIPR EC50; for EC50: hGIPR/CRE-LUC/CHO-K1 cells, 4 h incubation
T1 construct: expressed in transfected cells
T1 sequence (P48546 22-466): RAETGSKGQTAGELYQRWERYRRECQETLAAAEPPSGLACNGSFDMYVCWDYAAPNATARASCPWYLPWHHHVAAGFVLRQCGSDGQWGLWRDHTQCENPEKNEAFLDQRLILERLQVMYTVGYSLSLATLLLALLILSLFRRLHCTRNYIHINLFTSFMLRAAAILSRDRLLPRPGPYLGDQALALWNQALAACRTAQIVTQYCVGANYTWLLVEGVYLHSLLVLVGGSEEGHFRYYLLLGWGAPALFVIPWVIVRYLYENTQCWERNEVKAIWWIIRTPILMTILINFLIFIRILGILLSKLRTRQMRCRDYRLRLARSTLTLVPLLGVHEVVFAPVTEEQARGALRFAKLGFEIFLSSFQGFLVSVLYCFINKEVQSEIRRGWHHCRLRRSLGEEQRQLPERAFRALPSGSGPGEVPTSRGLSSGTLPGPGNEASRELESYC
Text: as §1
(2) Construction of Reporter Plasmid Expressing Cell
Luciferase reporter gene with a cAMP-responsive sequence located upstream is transferred to a CHO-K1 cell to construct a CRE-LUC/CHO-K1 cell.
(4) Transfer of Human GIPR Gene to CRE-LUC/CHO-K1 Cell and Obtaining of Expressing Cell
The plasmid hGIPR/pMSRα-neo obtained in (1) is transferred to the CRE-LUC/CHO-K1 cell obtained in (2) to obtain a transformant. Subsequently, the cell line inducing the luciferase expression, hGIPR/CRE-LUC/CHO-K1 cell, is selected from the obtained transformant by adding GIP.
25 μL each of the hGIPR/CRE-LUC/CHO-K1 cell is inoculated in a 384-well white plate (Corning) in such a way as to provide 5×10^3 cells/well and may be cultured in a HamF12 medium containing 10% fetal bovine serum, 100 U/mL penicillin, and 100 μg/mL streptomycin in a CO2 incubator at 37° C. overnight. 5 μL of a medium containing a test compound is added to the cells and incubated for 4 hours at the indicated concentration in a CO2 incubator at 37° C. Steady-Glo (Promega) is added in amounts of 30 μL and shaken under light shielding. Twenty minutes later, luciferase activity is measured using a plate reader Envision (PerkinElmer). The GIPR agonist activity is calculated with increase in intracellular cAMP concentration as the indicator when the luciferase activity in the presence of 10 nM of GIP was 100% and the luciferase activity in the case of adding DMSO instead of the test compound was 0%.

[2] = test system: Y2R agonist-induced emesis in dogs; format: in vivo, dog; details: 30 nmol/kg s.c.
Procedure: Example 8 PYY-1119-Induced Vomiting in Dogs
Emetic episodes were counted for 2 hours after administration (by blinded analysis).
Emetic episodes were counted for 2 hours after Y2R agonist administration (by blinded analysis).

[3] = ferret, morphine 0.6 mg/kg s.c. 0.5 h after drug, 128 μg/kg s.c.
[4] = ferret, morphine 0.6 mg/kg s.c. 0.5 h after drug, 128 μg/kg s.c., non-responders counted as 30 min
[5] = female beagle dogs, Y2R agonist 10 μg/kg s.c. at 8 hours postdose
[6] = female beagle dogs, Y2R agonist 10 μg/kg s.c. at 8 hours postdose, counted for 2 hours

Chain of human GLP-1R (P43220 24-463): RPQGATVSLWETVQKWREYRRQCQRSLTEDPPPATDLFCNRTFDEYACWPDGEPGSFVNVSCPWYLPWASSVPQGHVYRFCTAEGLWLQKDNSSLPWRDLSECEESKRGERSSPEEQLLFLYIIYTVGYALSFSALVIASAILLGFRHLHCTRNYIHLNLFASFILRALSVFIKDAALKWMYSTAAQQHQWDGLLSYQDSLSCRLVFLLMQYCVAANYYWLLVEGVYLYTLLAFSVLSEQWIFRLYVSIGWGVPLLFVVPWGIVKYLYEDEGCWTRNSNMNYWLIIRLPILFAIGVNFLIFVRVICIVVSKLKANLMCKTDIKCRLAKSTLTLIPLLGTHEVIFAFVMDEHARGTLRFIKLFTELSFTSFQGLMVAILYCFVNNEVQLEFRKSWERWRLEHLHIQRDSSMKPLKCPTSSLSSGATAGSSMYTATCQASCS

Molecule: CC[C@H](C)[C@H](NC(=O)[C@H](CO)NC(=O)[C@H](Cc1ccc(O)cc1)NC(=O)[C@H](CC(=O)O)NC(=O)[C@H](CO)NC(=O)[C@@H](NC(=O)[C@H](Cc1ccccc1)NC(=O)[C@@H](NC(=O)CNC(=O)[C@@H]1CCCN1C(=O)[C@H](C)NC(=O)[C@@H](N)Cc1ccc(O)cc1)[C@@H](C)O)[C@@H](C)CC)C(=O)N[C@@H](C)C(=O)N[C@@H](CCSC)C(=O)N[C@@H](CC(=O)O)C(=O)N[C@@H](CCCCN)C(=O)N[C@H](C(=O)N[C@@H](Cc1c[nH]cn1)C(=O)N[C@@H](CCC(N)=O)C(=O)N[C@@H](CCC(N)=O)C(=O)N[C@@H](CC(=O)O)C(=O)N[C@@H](Cc1ccccc1)C(=O)N[C@H](C(=O)N[C@@H](CC(N)=O)C(=O)N[C@@H](Cc1c[nH]c2ccccc12)C(=O)N[C@@H](CC(C)C)C(=O)N[C@@H](CC(C)C)C(=O)N[C@@H](C)C(=O)N[C@@H](CCC(N)=O)C(=O)N[C@@H](CCCCN)C(=O)N1CCC[C@H]1C(=O)N[C@@H](CO)C(=O)N[C@@H](CO)C(=O)NCC(=O)N[C@@H](C)C(=O)N1CCC[C@H]1C(=O)N1CCC[C@H]1C(=O)N1CCC[C@H]1C(=O)N[C@@H](CO)C(N)=O)C(C)C)[C@@H](C)CC [Compound 12]
EC50 (human GLP-1R; read-out: GLP1R EC50 nM (B)): > 1000 nM
Emesis: Duration [1, 3]: 1.5 ± 2.4 min
Emesis: Frequency [1, 3]: 3.8 ± 5.7
Emesis: No. of animals (responder/used) [1, 3]: 2/4
Fidget: Duration [1, 3]: 1.3 ± 1.9 min
Fidget: Frequency [1, 3]: 0.8 ± 1.0
Fidget: No. of animals (responder/used) [1, 3]: 2/4
Licking: Duration [1, 3]: 1.5 ± 1.7 min
Licking: Frequency [1, 3]: 1.3 ± 1.0
Licking: No. of animals (responder/used) [1, 3]: 3/4
Retching: Duration [1, 3]: 1.5 ± 2.4 min
Retching: Frequency [1, 3]: 3.3 ± 5.3
Retching: No. of animals (responder/used) [1, 3]: 2/4
Vomiting: Duration [1, 3]: 0.5 ± 0.6 min
Vomiting: Frequency [1, 3]: 0.5 ± 0.6
Vomiting: No. of animals (responder/used) [1, 3]: 2/4
Emesis: Latency [1, 4]: 18.3 ± 13.7 min
Fidget: Latency [1, 4]: 18.3 ± 13.7 min
Licking: Latency [1, 4]: 13.8 ± 11.3 min
Retching: Latency [1, 4]: 18.3 ± 13.7 min
Vomiting: Latency [1, 4]: 19.5 ± 12.1 min
Attenuation of morphine-induced emesis (in words) ([1]; male ferrets, 30 nmol/kg s.c. 30 minutes before morphine 0.6 mg/kg s.c.): completely attenuated
Comment: Anti-Emetic Activity (inhibition) on morphine-induced emesis ([1]; male ferrets, summary of the morphine experiments): partial inhibition
Selectivity Ratio (B/A) (human GIPR): >23,810
EC50 (human GIPR; read-out: GIPR EC50 nM (A)): 0.042 nM

EC50 (human GLP-1R; read-out: GLP1R EC50 nM (B)): < 0.02 nM
EC50 (human GLP-1R; read-out: GLP1R pEC50 (converted)): 0.017 nM
Selectivity Ratio (B/A) (human GIPR): 20
EC50 (human GIPR; read-out: GIPR pEC50 (converted)): 0.001 nM
Molecule: CC[C@H](C)[C@H](NC(=O)[C@H](CC(C)C)NC(=O)[C@H](Cc1c[nH]c2ccccc12)NC(=O)[C@H](CCC(N)=O)NC(=O)[C@@H](NC(=O)[C@H](Cc1ccccc1)NC(=O)[C@H](C)NC(=O)[C@H](CCCNC(=N)N)NC(=O)[C@H](CCC(N)=O)NC(=O)[C@H](C)NC(=O)[C@@H](NC(=O)[C@H](CCCCN)NC(=O)[C@H](CC(=O)O)NC(=O)[C@H](CC(C)C)NC(=O)C(C)(C)NC(=O)[C@@H](NC(=O)[C@H](CO)NC(=O)[C@H](Cc1ccc(O)cc1)NC(=O)[C@H](CC(=O)O)NC(=O)[C@H](CO)NC(=O)[C@@H](NC(=O)[C@H](Cc1ccccc1)NC(=O)[C@@H](NC(=O)CNC(=O)[C@H](CCC(=O)O)NC(=O)C(C)(C)NC(=O)[C@@H](N)Cc1ccc(O)cc1)[C@@H](C)O)[C@@H](C)O)[C@@H](C)CC)[C@@H](C)CC)C(C)C)C(=O)N[C@@H](C)C(=O)NC(C)(C)C(=O)N[C@@H](CCCCN)C(=O)NCC(=O)N[C@@H](CCCCN)C(=O)N[C@@H](CCCCN)C(=O)N[C@@H](CCC(N)=O)C(=O)N[C@@H](CCC(=O)O)C(=O)N[C@@H](Cc1c[nH]c2ccccc12)C(=O)N[C@@H](CCCCN)C(=O)N[C@@H](Cc1c[nH]cn1)C(=O)N[C@@H](CCC(N)=O)C(=O)N[C@H](C(=O)N[C@H](C(=O)N[C@@H](CCC(N)=O)C(=O)N[C@@H](CCCCNC(C)=O)C(N)=O)[C@@H](C)O)[C@@H](C)CC [Compound 16]

Selectivity Ratio (B/A) (human GIPR): >100,000
Molecule: YAibEGTFISDYSIALDK(Lys-(ethylene glycol)2-C15 diacid)HQQDFVNWLLAQRG-OH [Compound 26]
Anti-emetic effects in animal models of emesis (dogs) (in words) ([2]; dogs, Tables 16 and 17): significant anti-emetic effects
Duration of emesis [2, 5]: 0.0 ± 0.0 min
Latency period of emesis [2, 5]: 92.3 ± 55.5 min
No. of animals that did not vomit [2, 6]: 3
No. of emetic episodes [2, 6]: 0.3 ± 0.5
No. of emetic episodes, % Inhibition ([2]; female beagle dogs, Y2R agonist at 8 hours postdose, decreased ratio of mean emetic episodes vs vehicle group): [96.6%]
